1 molecule from article PMC6253949, “The Inhibitory Action of Kohamaic Acid A Derivatives on Mammalian DNA Polymerase β” (Molecules, 2008) can be followed below.

For orientation: IC50 means the concentration that gives 50% inhibition. High values mean weaker potency in that assay, low ones greater potency in that assay.

A value given as a limit tells only on which side of the number the result lay.

Test [1] relates to double-stranded DNA (dsDNA). In words: Thermal transition (Tm) of double-stranded DNA. In kind it is binding. To be noted: compound 11 at 200 μM; data not shown. Here is the method:
The Tm of dsDNA with an excess amount of compound 11 (200 μM) was measured using a spectrophotometer equipped with a thermoelectric cell holder.

Test [2] deals with Calf Primase of DNA polymerase α (Bos taurus, UniProt A0A3Q1MF00+A0JNF4). Briefly: Primase activity assay of calf pol α. The format is biochemical. Here is the method:
The primase activity of calf pol α, the activities of T7 RNA polymerase, T4 polynucleotide kinase and bovine DNase I were measured in standard assays according to the manufacturer's specifications as described by Tamiya-Koizumi et al., Nakayama et al., Soltis et al., and Lu and Sakaguchi, respectively.

For test [3], the target named is Cherry salmon DNA polymerase δ (Oncorhynchus masou, UniProt Z9UCE0HTX2). Briefly: DNA polymerase assay, fish pol δ. The format is biochemical.
Cherry salmon DNA polymerase δ, sequence (Z9UCE0HTX2 1-856): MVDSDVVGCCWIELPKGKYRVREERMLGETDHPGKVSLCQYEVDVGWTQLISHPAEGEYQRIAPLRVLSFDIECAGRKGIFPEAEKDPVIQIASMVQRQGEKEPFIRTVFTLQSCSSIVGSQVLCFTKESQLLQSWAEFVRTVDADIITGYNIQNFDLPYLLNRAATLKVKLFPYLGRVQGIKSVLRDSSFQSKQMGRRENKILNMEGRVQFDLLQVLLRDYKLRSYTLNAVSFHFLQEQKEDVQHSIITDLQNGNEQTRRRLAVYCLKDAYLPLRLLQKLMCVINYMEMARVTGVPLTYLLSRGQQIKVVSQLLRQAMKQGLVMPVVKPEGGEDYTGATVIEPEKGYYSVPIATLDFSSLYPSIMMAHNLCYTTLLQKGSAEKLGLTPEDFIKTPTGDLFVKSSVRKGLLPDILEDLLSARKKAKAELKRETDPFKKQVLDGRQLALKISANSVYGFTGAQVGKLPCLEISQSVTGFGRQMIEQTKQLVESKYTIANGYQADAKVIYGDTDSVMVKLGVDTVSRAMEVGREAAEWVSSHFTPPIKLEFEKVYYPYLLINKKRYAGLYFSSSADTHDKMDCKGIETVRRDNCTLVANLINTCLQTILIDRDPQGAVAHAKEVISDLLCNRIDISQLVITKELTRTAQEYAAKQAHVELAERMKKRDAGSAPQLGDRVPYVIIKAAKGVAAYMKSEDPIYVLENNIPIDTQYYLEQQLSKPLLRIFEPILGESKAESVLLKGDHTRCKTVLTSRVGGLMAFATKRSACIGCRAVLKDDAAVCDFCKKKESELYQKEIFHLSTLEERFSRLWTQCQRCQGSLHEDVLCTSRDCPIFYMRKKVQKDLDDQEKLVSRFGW
Another test deals with T1, Human DNA polymerase ε (Homo sapiens, UniProt Q07864).
T1 construct: Human pols δ and ε were purified by the nuclear fractionation of human peripheral blood cancer cells (Molt-4); endogenous in cells; host or cells: Molt-4
Briefly: DNA polymerase assay, human pol ε. The format is biochemical. From the text:
(§1) Pol α was purified from calf thymus by immuno-affinity column chromatography as described by Tamai et al.. Recombinant rat pol β was purified from E. coli JMpβ5 as described by Date et al.. The human pol γ catalytic gene was cloned into pFastBac. Histidine-tagged enzyme was expressed using the BAC-TO-BAC HT Baculovirus Expression System according to the supplier's manual (LIFE TECHNOLOGIES, MD, USA) and purified using ProBoundresin (Invitrogen Japan, Tokyo, Japan). Human pols δ and ε were purified by the nuclear fractionation of human peripheral blood cancer cells (Molt-4) using the second subunit of pols δ and ε-conjugated affinity column chromatography, respectively. Recombinant human pols η and ι tagged with His6 at their C-terminal were expressed in SF9 insect cells using the baculovirus expression system, and were purified as described previously. A truncated form of pol κ (i.e., hDINB1DC) with 6 x His-tags attached at the C-terminal was overproduced using the BAC-to-BAC Baculovirus Expression System kit (GIBCO BRL, MD, USA) and purified as described previously. […]
(§2) For pols, poly(dA)/oligo(dT)12-18 (A/T = 2/1) and dTTP were used as the DNA template-primer and nucleotide (i.e., dNTP) substrate, respectively. […] Activity without the inhibitor was considered 100%, and the remaining activity at each concentration of the inhibitor was determined relative to this value. […]

The next test deals with HL-60 cells. Briefly: HL-60 cancer cell growth, MTT assay. The format is cell-based, human. To be noted: 50 μM, 24 hr. As for the experimental part:
To investigate the effects of KA-A derivatives in cultured cells, we used a human cancer cell line, HL-60, human promyelocytic leukemia cells (IFO 050022), supplied by the Health Science Research Resources Bank (Osaka, Japan). The cells were routinely cultured in RPMI 1640 medium supplemented with 10% fetal bovine serum, 100 μg/mL streptomycin, 100 unit/mL penicillin, and 1.6 mg/mL NaHCO3. The cells were cultured at 37 °C in standard medium in a humidified atmosphere of 5% CO2-95% air. The rate of the cancer cell growth of the compound was investigated as follows: high concentrations (10 mM) of the compounds were dissolved in DMSO and stocked. Approximately 1 x 10^4 cells per well were inoculated in 96-well micro plates, and then the compound stock solution was diluted to various concentrations, and applied to each well. After incubation for 24 hr, the survival rate was determined by MTT (3-(4,5-dimethylthiazol-2-yl)-2,5-diphenyl tetrazolium bromide) assay.

The next test deals with T2, Human DNA polymerase ι (Homo sapiens, UniProt Q9UNA4).
T2 construct: His6 (C); made in house; host or cells: SF9 insect cells (baculovirus)
T2 sequence (Q9UNA4 1-740): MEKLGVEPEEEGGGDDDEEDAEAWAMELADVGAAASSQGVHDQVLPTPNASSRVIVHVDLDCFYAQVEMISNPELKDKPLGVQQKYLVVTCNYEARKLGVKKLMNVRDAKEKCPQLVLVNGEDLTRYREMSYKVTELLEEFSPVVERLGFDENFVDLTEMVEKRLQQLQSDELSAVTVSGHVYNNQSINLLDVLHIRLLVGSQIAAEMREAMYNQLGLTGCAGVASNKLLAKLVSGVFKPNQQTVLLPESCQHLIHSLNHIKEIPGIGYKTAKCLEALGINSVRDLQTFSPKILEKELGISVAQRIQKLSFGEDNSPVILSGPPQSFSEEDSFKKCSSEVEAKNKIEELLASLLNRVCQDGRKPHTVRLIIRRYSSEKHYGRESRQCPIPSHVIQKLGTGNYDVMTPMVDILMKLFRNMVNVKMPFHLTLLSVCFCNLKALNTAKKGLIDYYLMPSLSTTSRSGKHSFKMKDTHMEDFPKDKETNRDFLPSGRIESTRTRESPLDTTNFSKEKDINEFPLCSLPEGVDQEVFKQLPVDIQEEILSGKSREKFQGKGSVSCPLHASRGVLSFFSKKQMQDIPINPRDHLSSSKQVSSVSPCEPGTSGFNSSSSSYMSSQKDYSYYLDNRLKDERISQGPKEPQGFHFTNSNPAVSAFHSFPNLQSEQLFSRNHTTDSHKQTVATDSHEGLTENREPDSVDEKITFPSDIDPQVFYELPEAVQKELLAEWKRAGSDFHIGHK
Briefly: DNA polymerase assay, human pol ι. In kind it is biochemical.
Description: as §1, §2

Calf Primase of DNA polymerase α, sequence (A0AAA9THK8 entry or part of it): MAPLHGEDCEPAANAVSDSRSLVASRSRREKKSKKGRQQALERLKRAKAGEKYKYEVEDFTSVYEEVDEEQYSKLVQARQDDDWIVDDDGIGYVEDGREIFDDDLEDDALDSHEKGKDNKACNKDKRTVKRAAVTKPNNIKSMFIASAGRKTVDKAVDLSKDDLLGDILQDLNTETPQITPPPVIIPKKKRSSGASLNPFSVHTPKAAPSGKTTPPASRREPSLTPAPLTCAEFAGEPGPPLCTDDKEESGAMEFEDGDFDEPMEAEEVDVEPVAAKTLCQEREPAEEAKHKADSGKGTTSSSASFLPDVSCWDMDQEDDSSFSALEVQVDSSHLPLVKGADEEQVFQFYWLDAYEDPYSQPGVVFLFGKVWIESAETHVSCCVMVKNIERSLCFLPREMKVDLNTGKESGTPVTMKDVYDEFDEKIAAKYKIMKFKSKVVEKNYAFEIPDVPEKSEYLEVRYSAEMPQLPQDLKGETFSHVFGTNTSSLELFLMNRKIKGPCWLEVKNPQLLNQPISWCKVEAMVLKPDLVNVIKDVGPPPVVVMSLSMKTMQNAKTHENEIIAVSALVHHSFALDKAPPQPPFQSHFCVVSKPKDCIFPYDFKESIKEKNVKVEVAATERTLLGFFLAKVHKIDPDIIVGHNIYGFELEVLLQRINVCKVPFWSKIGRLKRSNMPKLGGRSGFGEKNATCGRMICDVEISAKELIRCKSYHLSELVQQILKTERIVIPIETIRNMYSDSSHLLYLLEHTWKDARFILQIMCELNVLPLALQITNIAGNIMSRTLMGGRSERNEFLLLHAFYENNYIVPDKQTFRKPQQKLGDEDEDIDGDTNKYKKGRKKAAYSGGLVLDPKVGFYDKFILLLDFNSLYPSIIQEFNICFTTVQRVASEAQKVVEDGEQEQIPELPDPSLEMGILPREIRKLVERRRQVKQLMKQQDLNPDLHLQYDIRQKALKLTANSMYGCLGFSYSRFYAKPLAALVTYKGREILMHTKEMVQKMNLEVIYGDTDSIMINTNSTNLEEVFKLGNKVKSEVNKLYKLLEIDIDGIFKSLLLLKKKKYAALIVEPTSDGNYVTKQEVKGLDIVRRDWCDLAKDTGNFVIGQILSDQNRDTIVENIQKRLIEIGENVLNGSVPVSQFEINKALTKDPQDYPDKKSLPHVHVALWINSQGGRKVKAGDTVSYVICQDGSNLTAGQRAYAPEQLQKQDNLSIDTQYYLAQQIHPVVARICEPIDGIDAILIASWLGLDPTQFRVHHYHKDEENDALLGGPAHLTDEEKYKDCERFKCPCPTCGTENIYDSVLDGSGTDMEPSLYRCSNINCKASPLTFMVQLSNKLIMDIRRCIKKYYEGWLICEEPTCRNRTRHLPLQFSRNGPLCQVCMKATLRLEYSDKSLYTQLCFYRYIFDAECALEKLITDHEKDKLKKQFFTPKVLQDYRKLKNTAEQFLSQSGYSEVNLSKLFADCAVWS
Calf Primase of DNA polymerase α, sequence (A0JNF4 entry or part of it): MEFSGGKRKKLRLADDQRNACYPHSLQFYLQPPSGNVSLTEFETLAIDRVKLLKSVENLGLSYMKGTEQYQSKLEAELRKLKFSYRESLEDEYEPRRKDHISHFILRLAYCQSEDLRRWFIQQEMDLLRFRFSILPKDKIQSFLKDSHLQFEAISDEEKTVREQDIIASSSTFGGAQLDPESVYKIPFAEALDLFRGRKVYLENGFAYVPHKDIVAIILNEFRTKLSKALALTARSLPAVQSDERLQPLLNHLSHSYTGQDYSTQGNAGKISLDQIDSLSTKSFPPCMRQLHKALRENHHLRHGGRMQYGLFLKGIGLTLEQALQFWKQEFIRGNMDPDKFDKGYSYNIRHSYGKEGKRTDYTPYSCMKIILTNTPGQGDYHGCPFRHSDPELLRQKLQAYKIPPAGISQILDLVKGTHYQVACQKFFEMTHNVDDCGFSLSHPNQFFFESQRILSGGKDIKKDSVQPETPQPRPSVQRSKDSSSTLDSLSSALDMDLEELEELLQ
Calf Primase of DNA polymerase α, sequence (Q58D13 whole entry, further chain): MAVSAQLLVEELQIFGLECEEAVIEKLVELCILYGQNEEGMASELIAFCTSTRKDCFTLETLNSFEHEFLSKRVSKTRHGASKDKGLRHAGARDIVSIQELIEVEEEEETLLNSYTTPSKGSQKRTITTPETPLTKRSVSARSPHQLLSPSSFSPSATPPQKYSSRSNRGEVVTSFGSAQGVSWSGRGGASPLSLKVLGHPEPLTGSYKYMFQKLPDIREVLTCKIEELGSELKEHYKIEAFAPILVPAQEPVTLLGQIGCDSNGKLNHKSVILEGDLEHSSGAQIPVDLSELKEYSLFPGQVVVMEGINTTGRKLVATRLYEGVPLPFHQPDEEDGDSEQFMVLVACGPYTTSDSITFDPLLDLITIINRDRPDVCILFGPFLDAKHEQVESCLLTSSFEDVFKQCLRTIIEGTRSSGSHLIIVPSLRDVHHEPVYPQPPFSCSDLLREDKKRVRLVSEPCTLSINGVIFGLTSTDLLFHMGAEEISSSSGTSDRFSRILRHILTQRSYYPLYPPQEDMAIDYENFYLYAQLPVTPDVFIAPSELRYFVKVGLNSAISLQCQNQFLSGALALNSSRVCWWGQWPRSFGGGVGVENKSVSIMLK
Calf Primase of DNA polymerase α, sequence (A0A3Q1MF00 entry or part of it): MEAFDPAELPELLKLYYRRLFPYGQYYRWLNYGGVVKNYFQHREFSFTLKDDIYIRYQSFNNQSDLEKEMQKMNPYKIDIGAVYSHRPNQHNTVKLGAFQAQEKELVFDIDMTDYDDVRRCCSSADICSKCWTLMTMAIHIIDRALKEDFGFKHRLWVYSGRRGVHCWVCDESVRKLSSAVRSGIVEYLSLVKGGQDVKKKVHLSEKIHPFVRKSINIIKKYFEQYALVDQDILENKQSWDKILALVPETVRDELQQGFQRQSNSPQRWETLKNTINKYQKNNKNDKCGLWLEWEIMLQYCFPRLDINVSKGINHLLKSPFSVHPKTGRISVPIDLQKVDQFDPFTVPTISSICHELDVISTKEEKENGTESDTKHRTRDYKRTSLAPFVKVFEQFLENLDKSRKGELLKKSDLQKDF

With `CC1=CC[C@H]2C(C)(C)CCC[C@]2(C)[C@H]1CCCCCCCCCCCCCCCCC(=O)O` (relative stereo) [compound 11, (1S*,4aS*,8aS*)-17-(1,4,4a,5,6,7,8,8a-octahydro-2,5,5,8a-tetramethylnaphthalen-1-yl)heptadecanoic acid], the “Thermal transition of Tm of dsDNA” value in test [1] is reported as “no thermal transition of Tm was observed”. Further, the IC50 in test [2] is > 200 µM; in test [3] it was 4.3 ± 0.22 µM; at Human DNA polymerase ε, 3.22 ± 0.16 µM; against Human DNA polymerase ι, 7.84 ± 0.39 µM. In addition, the “Growth inhibitory effect on HL-60 cells, rank among compounds tested” value in the test with HL-60 cells was “strongest growth inhibitory effect”.
